Here are results for 1 compound from patent publication US20200010910A1, “Cytotoxic Chemotherapy-Based Predictive Assays for Acute Myeloid Leukemia” (The Regents of The University of California, priority 2017, published 2020).

Structures are written as SMILES.

The subject of one data set is A549. The experiment in a line: MTT assay IC50. It counts as cell-based, human. As for the experimental part:
(§1) Six non-small cell lung cancer (NSCLC) cell lines were treated in culture with [^14C]carboplatin. Carboplatin-DNA monoadduct levels over time were determined by measuring ^14C content in genomic DNA with accelerator mass spectrometry (AMS). Cellular sensitivity to carboplatin and cisplatin was analyzed by the MTT assay (Henderson et al., International Journal of Cancer 2011).
(§2) Human NSCLC cell lines H23, H460, H727, HCC827, H1975, and A549 were purchased from ATCC and were cultured with the recommended medium. The MTT assay was performed as previously reported to determine the drug concentration required to inhibit cell growth by 50% (IC50) of cisplatin and carboplatin. [^14C]Carboplatin (at 53 mCi/mmol) was mixed with unlabeled carboplatin to achieve the specific activities required for microdoses and therapeutic doses. Table 1 lists the six NSCLC cell lines and summarizes their IC50 characteristics, induced carboplatin-DNA monoadducts when treated with [^14C]carboplatin, and p and r^2 values for correlation analysis to the IC50 concentrations.

The test system of a further data set is H1975. As to the kind of experiment: MTT assay IC50. It counts as cell-based, human. As for the experimental part:
as §1, §2
Background: Tetrazolium assays rely on reduction of a dye to a coloured formazan, in cell work by metabolically active cells.

A further data set concerns H23. As to the kind of experiment: MTT assay IC50. It counts as cell-based, human. On the procedure:
as §1, §2

The next data set relates to H460. The experiment in a line: MTT assay IC50. Format: cell-based, human. On the procedure: as §1, §2
A further data set deals with H727. As to the kind of experiment: MTT assay IC50. Format: cell-based, human. As for the experimental part: as §1, §2
The test system of a further data set is HCC827. As to the kind of experiment: MTT assay IC50. Format: cell-based, human. As for the experimental part:
as §1, §2

For another data set, the system named is A549 tumor xenograph. The experiment in a line: tumor response to therapeutic carboplatin. The note with it: resistant A549 xenograph; single IV 37.3 mg/kg; 14 days. Format: in vivo, nude mice. From the text:
(§3) Xenograft mouse tumors consisting of one carboplatin resistant and one sensitive tumor type were established for in vivo evaluation of carboplatin-DNA monoadduct formation and repair in tumor tissue and for in vivo evaluation of tumor response to therapeutic dosing with carboplatin. Tumor xenografts were established in 1-2 month old nude mice by injecting approximately one million cells into the left and right flanks, and allowed to develop tumors of less than 1 cm^3 over approximately 4 weeks prior to DNA adduct studies. Mice bearing resistant and sensitive tumors were exposed to either a microdose or therapeutic dose of carboplatin by tail vein injection. DNA isolated from tumor tissue was evaluated for carboplatin-DNA monoadduct frequency levels as a function of time. For tumor response, mice bearing resistant and sensitive tumors were therapeutically treated with a single IV injection of 37.3 mg/kg of carboplatin and then examined for tumor growth as assessed by measuring palpable tumors with a caliper and calculating tumor volume.
(§4) Mice xenografted with sensitive (H232A) and resistant (A549) lung cancer cell lines were infused with a therapeutic dose of carboplatin to assess tumor response. The tumors were measured daily over 14 days post infusion (FIG. 10C). Tumor size was normalized as the ratio of tumor diameter to the tumor diameter measured on day 0 (no change=1.0). […]

The subject of another data set is H23 2A tumor xenograph. The experiment in a line: tumor response to therapeutic carboplatin. Format: in vivo, nude mice. To be noted: sensitive H23 2A xenograph; single IV 37.3 mg/kg; 14 days.
Excerpt: as §3, §4

The test system of the next data set is PDX Model BL0293. The experiment in a line: drug-DNA adducts in PDX tumor by AMS. It counts as in vivo, NSG mice. To be noted: microdose 0.375 mg/kg carboplatin, 24 h. An excerpt: (§5) Female NSG mice (5-8 weeks of age, body weight: 20 to 25 g) were obtained from Jackson Laboratories (CA, USA). All animals were kept under pathogen-free conditions and were allowed to acclimatize for at least 4 days prior to any experiments. PDX models bearing the indicated patient derived xenografts were created by subcutaneous injection at the flank of 1 mm^3 tumor tissue. To establish multiple PDXs to allow efficacy studies with multiple drugs, PDXs from passage 2-4 were minced into 1 mm^3 sections and injected subcutaneously into multiple mice. At least 3 mice were used for each treatment group. Tumors were allowed to grow to at about 100 mm^3 before being assessed for drug sensitivity or the induction of DNA adducts by the administration of a microdose or a therapeutic dose of labeled drug. To assess tumor response to chemotherapy, cisplatin was administered at 2 mg/kg IV every 7 days for a total of 3 cycles, or gemcitabine was administered at 150 mg/kg IP every 7 days for a total of 4 cycles. G/C combination chemotherapy consisted of the simultaneous administration of both drugs using the schema described above. Tumor growth was assessed by measuring palpable tumors with a caliper and calculating tumor volume. Drug-DNA adduct frequencies were measured in tumor tissue collected 24 hours after intravenous injection of labeled drug and stored at −80° C. until DNA isolation. DNA was isolated using a modified Wizard procedure (Promega), quantitated by spectrophotometry, and then stored frozen at −20° C. until AMS analysis. Ten micrograms of DNA per sample was converted to graphite and measured by AMS for 14C quantification as previously described.
(§6) NSG mice bearing the indicated PDX tumors were injected with a microdose of ^14C-labeled carboplatin (FIG. 22A) or ^14C-labeled gemcitabine (FIG. 22B). The microdose of ^14C-labeled carboplatin was 0.375 mg/kg carboplatin, 50,000 dpm/g. The microdose of ^14C-labeled gemcitabine was 0.092 mg/kg gemcitabine, 1000 dpm/g. The doses of each drug administered to the mice were chosen to target 1 μM in plasma concentration of carboplatin and 0.3 μM in plasma concentration of gemcitabine. These plasma concentrations represent 1% of the approximate peak plasma concentration during human chemotherapy. Animals were sacrificed after 24 h and drug-DNA adduct frequency was determined from collected tumor tissue by AMS measurements of ^14C in tumor DNA. Carboplatin DNA-adduct levels correlate with PDX model sensitivity to cisplatin at 24 h after microdosing (FIG. 22A). Gemcitabine DNA-adduct levels correlate with PDX model sensitivity to gemcitabine at 24 h after microdosing (FIG. 22B). […] There is no significant difference in carboplatin-DNA monoadduct levels between the three resistant PDX models. […]

The subject of the next data set is PDX Model BL0440. As to the kind of experiment: drug-DNA adducts in PDX tumor by AMS. It counts as in vivo, NSG mice. To be noted: microdose 0.375 mg/kg carboplatin, 24 h.
Excerpt: as §5, §6

The conditions of data set [1]: sterile solution in water.
Experimental: Radiolabeled carboplatin containing C^14 carbon atoms in the cyclobutane dicarboxylic acid group was formulated for human use as a sterile, pyrogen free solution at 5 mg/mL in water.

Regarding `N.N.O=C([O-])C1(C(=O)[O-])CCC1.[Pt+2]` [carboplatin], the IC50 in the data set on A549 came out at 196 µM; with H1975, 88.5 ± 30.8 µM; in the data set with H23, 19.4 ± 8.65 µM; with H460, 22 ± 5.23 µM; with H727, 53.5 ± 3.65 µM; with HCC827, 86.2 ± 10.9 µM. The “tumor response (growth after chemotherapy)” value in the data set on A549 tumor xenograph is reported as “continued to grow”; in the data set on H23 2A tumor xenograph, “did not display any growth”. Further, the “mean carboplatin-DNA monoadduct level” value is recorded as 1.46±0.520 adducts per 10^8 nucleotides with PDX Model BL0293 and 2.73±0.661 adducts per 10^8 nucleotides with PDX Model BL0440. In data set [1] (storage at −20° C.), the “loss of radiopurity per year” value is recorded as less than 2%. Besides, in [1] (upon freezing), the stability to freeze/thaw result is recorded as “no observed precipitation”.

What is called IC50 is the concentration that gives 50% inhibition. Read a high IC50 as weaker potency.
